Results taken from patent US20230141101A1, “PDE4 INHIBITOR COMPOUND AND MEDICAL USE THEREOF” (Suzhou Longbotai Pharmaceuticals Co., Ltd., priority 2020, published 2023).

What was measured:
Type in all cases: biochemical
Conditions in all cases: 20 nM
PDE4A1A = target: T1, PDE4A1A (Homo sapiens, UniProt P27815); test: PDE4 inhibitory activity assay (FAM-cAMP enzymatic reaction), PDE4A1A
T1 construct: purchased BPS 60040
In short: (§1)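 Inhibition rates from a fluorescence read gave IC50 values. Each enzyme (PDE4A1A, PDE4B1, PDE4D2) sat with compound for 15 min at room temperature; FAM-cAMP then started a 30 min room-temperature reaction, ended with stop solution and left 60 min more.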

PDE4B1 = target: T2, PDE4B1 (Homo sapiens, UniProt Q07343); test: PDE4 inhibitory activity assay (FAM-cAMP enzymatic reaction), PDE4B1
T2 construct: purchased BPS 60041
T2 sequence (Q07343 whole entry): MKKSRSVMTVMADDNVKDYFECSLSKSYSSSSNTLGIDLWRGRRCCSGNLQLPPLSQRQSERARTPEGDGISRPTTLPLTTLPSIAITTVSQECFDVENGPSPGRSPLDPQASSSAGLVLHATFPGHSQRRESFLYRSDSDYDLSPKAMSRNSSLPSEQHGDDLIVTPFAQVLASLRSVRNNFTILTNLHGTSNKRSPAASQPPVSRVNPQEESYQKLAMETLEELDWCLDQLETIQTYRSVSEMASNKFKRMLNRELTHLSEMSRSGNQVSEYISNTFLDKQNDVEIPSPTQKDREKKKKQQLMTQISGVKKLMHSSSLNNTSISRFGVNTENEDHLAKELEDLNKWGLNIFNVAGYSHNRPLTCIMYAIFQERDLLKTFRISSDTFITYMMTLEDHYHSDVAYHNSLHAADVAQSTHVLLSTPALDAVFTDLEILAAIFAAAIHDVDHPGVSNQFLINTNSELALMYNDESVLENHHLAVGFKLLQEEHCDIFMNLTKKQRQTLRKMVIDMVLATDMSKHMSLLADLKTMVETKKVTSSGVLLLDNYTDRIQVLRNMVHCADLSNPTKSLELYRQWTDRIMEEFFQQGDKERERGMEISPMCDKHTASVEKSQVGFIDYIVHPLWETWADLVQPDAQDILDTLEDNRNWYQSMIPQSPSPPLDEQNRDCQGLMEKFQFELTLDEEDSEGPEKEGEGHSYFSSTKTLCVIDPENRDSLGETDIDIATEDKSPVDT
In short: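 Each isoform is incubated with test compound for 15 min at room temperature before FAM-cAMP substrate starts a 30-min reaction.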

PDE4D2 = PDE4D2 (Homo sapiens, UniProt Q08499); test: PDE4 inhibitory activity assay (FAM-cAMP enzymatic reaction), PDE4D2
PDE4D2, sequence (Q08499 303-809): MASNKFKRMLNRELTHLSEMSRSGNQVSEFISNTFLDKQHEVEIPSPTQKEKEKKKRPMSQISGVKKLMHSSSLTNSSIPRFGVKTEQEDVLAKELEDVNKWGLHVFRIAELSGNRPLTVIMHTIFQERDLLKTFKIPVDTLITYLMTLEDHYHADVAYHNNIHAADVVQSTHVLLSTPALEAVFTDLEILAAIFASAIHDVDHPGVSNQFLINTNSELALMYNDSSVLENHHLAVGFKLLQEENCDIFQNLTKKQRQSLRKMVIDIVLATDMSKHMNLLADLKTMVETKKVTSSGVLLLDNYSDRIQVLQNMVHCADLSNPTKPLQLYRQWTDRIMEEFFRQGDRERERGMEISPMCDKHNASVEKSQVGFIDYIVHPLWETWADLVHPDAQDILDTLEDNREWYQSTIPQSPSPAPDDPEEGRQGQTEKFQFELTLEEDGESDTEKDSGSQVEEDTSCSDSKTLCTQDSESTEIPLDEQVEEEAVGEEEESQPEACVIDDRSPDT
In short: as §1

T1 sequence (P27815 1-647 isoform P27815-4): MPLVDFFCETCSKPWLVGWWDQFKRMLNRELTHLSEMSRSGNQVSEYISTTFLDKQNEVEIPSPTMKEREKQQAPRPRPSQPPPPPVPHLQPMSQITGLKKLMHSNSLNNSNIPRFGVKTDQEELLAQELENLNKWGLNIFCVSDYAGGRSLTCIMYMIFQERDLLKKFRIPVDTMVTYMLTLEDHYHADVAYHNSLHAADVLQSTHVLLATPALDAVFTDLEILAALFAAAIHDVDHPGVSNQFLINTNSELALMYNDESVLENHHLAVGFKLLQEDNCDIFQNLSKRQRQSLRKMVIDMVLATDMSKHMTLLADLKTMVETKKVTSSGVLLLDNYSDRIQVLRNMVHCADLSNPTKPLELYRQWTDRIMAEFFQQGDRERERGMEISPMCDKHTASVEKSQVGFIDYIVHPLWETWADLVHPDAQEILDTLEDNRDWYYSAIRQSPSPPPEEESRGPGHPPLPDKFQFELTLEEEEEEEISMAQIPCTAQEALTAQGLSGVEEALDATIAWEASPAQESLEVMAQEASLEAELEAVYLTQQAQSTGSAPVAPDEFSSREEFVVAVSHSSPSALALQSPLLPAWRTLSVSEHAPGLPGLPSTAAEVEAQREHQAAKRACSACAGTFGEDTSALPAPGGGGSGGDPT

PDE4 A1 inhibitory effect at 20 nM (PDE4A1A)	PDE4 B1 inhibitory effect at 20 nM (PDE4B1)	PDE4 D2 inhibitory effect at 20 nM (PDE4D2)	Compound
+	+	+	CCOc1nc([C@@H](CS(C)(=O)=O)n2c(=O)[nH]c3cc(-c4cccc(F)c4F)cnc32)ccc1OC [Ex. 90, (S)-6-(2,3-difluorophenyl)-3-(1-(6-ethoxy-5-methoxypyridin-2-yl)-2-(methylsulfonyl)ethyl)-1H-imidazo[4,5-b]pyridin-2(3H)-one]
+	+	+	CCOc1nc([C@@H](CS(C)(=O)=O)n2c(=O)[nH]c3cc(-c4cc(F)ccc4F)cnc32)ccc1OC [Ex. 92, (S)-6-(2,5-difluorophenyl)-3-(1-(6-ethoxy-5-methoxypyridin-2-yl)-2-(methylsulfonyl)ethyl)-1H-imidazo[4,5-b]pyridin-2(3H)-one]
+	+	+	CCOc1nc([C@@H](CS(C)(=O)=O)n2c(=O)[nH]c3cc(-c4ccc(F)cc4F)cnc32)ccc1OC [Ex. 94, (S)-6-(2,4-difluorophenyl)-3-(1-(6-ethoxy-5-methoxypyridin-2-yl)-2-(methylsulfonyl)ethyl)-1H-imidazo[4,5-b]pyridin-2(3H)-one]
+	+	+	CCOc1nc([C@@H](CS(C)(=O)=O)n2c(=O)[nH]c3cc(-c4cc(F)c(F)cc4F)cnc32)ccc1OC [Ex. 96, (S)-6-(2,4,5-trifluorophenyl)-3-(1-(6-ethoxy-5-methoxypyridin-2-yl)-2-(methylsulfonyl)ethyl)-1H-imidazo[4,5-b]pyridin-2(3H)-one]
+	+	+	CCOc1nc([C@@H](CS(C)(=O)=O)n2c(=O)n(C)c3cc(-c4cc(F)c(F)cc4F)cnc32)ccc1OC [Ex. 97, (S)-6-(2,4,5-trifluorophenyl)-3-(1-(6-ethoxy-5-methoxypyridin-2-yl)-2-(methylsulfonyl)ethyl)-1-methyl-1H-imidazo[4,5-b]pyridin-2(3H)-one]
−	−	−	CCOc1nc([C@H](CS(C)(=O)=O)n2c(=O)[nH]c3cc(-c4cc(F)ccc4F)cnc32)ccc1OC [Ex. 98, (R)-6-(2,5-difluorophenyl)-3-(1-(6-ethoxy-5-methoxypyridin-2-yl)-2-(methylsulfonyl)ethyl)-1H-imidazo[4,5-b]pyridin-2(3H)-one]

Second part, the compound before the results:

Compound	PDE4 A1 inhibitory effect at 20 nM (PDE4A1A)	PDE4 B1 inhibitory effect at 20 nM (PDE4B1)	PDE4 D2 inhibitory effect at 20 nM (PDE4D2)
CCOc1nc([C@@H](CS(C)(=O)=O)n2c(=O)n(C)c3cc(-c4c(F)cccc4F)cnc32)ccc1OC [Ex. 89, (S)-6-(2,6-difluorophenyl)-3-(1-(6-ethoxy-5-methoxypyridin-2-yl)-2-(methylsulfonyl)ethyl)-1-methyl-1H-imidazo[4,5-b]pyridin-2(3H)-one]	+	+	+
CCOc1nc([C@@H](CS(C)(=O)=O)n2c(=O)n(C)c3cc(-c4cccc(F)c4F)cnc32)ccc1OC [Ex. 91, (S)-6-(2,3-difluorophenyl)-3-(1-(6-ethoxy-5-methoxypyridin-2-yl)-2-(methylsulfonyl)ethyl)-1-methyl-1H-imidazo[45-b]pyridin-2(3H)-one]	+	+	+
CCOc1nc([C@@H](CS(C)(=O)=O)n2c(=O)n(C)c3cc(-c4cc(F)ccc4F)cnc32)ccc1OC [Ex. 93, (S)-6-(2,5-difluorophenyl)-3-(1-(6-ethoxy-5-methoxypyridin-2-yl)-2-(methylsulfonyl)ethyl)-1-methyl-1H-imidazo[4,5-b]pyridin-2(3H)-one]	+	+	+
CCOc1nc([C@@H](CS(C)(=O)=O)n2c(=O)n(C)c3cc(-c4ccc(F)cc4F)cnc32)ccc1OC [Ex. 95, (S)-6-(2,4-difluorophenyl)-3-(1-(6-ethoxy-5-methoxypyridin-2-yl)-2-(methylsulfonyl)ethyl)-1-methyl-1H-imidazo[4,5-b]pyridin-2(3H)-one]	+	+	+
CCOc1nc([C@@H](CS(C)(=O)=O)n2c(=O)[nH]c3cc(-c4ccc(C)cc4C)cnc32)ccc1OC [Ex. 99, (S)-6-(2,4-dimethylphenyl)-3-(1-(6-ethoxy-5-methoxypyridin-2-yl)-2-(methylsulfonyl)ethyl)-1H-imidazo[4,5-b]pyridin-2(3H)-one]	+	+	+
CCOc1nc([C@@H](CS(C)(=O)=O)n2c(=O)n(C)c3cc(-c4ccc(C)cc4C)cnc32)ccc1OC [Ex. 100, (S)-6-(2,4-dimethylphenyl)-3-(1-(6-ethoxy-5-methoxypyridin-2-yl)-2-(methylsulfonyl)ethyl)-1-methyl-1H-imidazo[4,5-b]pyridin-2(3H)-one]	+	+	+
CCOc1nc([C@@H](CS(C)(=O)=O)n2c(=O)[nH]c3cc(-c4cc(C)ccc4C)cnc32)ccc1OC [Ex. 101, (S)-6-(2,5-dimethylphenyl)-3-(1-(6-ethoxy-5-methoxypyridin-2-yl)-2-(methylsulfonyl)ethyl)-1H-imidazo[4,5-b]pyridin-2(3H)-one]	+	+	+
CCOc1nc([C@@H](CS(C)(=O)=O)n2c(=O)n(C)c3cc(-c4cc(C)ccc4C)cnc32)ccc1OC [Ex. 102, (S)-6-(2,5-dimethylphenyl)-3-(1-(6-ethoxy-5-methoxypyridin-2-yl)-2-(methylsulfonyl)ethyl)-1-methyl-1H-imidazo[4,5-b]pyridin-2(3H)-one]	+	+	+
CCOc1nc([C@@H](CS(C)(=O)=O)n2c(=O)[nH]c3cc(-c4cccc(C)c4C)cnc32)ccc1OC [Ex. 103, (S)-6-(2,3-dimethylphenyl)-3-(1-(6-ethoxy-5-methoxypyridin-2-yl)-2-(methylsulfonyl)ethyl)-1H-imidazo[4,5-b]pyridin-2(3H)-one]	+	+	+
CCOc1nc([C@@H](CS(C)(=O)=O)n2c(=O)n(C)c3cc(-c4cccc(C)c4C)cnc32)ccc1OC [Ex. 104, (S)-6-(2,3-dimethylphenyl)-3-(1-(6-ethoxy-5-methoxypyridin-2-yl)-2-(methylsulfonyl)ethyl)-1-methyl-1H-imidazo[4,5-b]pyridin-2(3H)-one]	+	+	+
CCOc1nc([C@@H](CS(C)(=O)=O)n2c(=O)[nH]c3cc(-c4c(C)cccc4C)cnc32)ccc1OC [Ex. 105, (S)-6-(2,6-dimethylphenyl)-3-(1-(6-ethoxy-5-methoxypyridin-2-yl)-2-(methylsulfonyl)ethyl)-1H-imidazo[4,5-b]pyridin-2(3H)-one]	+	+	+
